Key:
[1] = target: T1, recombinant human Estrogen Receptor alpha ligand binding domain, residues 307-554 (ER alpha-LBD (GST)) (Homo sapiens, UniProt P03372); experiment: ERα binding assay (LanthaScreen TR-FRET competition); conditions: TR-FRET competition with Fluormone ES2 tracer, 4 hours at room temperature; single experiment or average of two or more
T1 construct: made in house
T1 sequence (P03372 307-554): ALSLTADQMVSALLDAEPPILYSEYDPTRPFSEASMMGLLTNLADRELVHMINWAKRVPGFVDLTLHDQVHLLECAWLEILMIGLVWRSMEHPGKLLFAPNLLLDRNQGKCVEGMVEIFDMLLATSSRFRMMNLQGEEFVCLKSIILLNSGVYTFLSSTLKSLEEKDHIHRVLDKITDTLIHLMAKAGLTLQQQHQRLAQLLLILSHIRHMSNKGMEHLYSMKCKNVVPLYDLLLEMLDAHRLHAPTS
Method: The ability of compounds to bind to isolated Estrogen Receptor Alpha Ligand binding domain (ER alpha-LBD (GST)) was assessed in competition assays using a LanthaScreen™ Time-Resolved Fluorescence Resonance Energy Transfer (TR-FRET) detection end-point. For the LanthaScreen TR-FRET endpoint, a suitable fluorophore (Fluormone ES2, ThermoFisher, Product code P2645) and recombinant human Estrogen Receptor alpha ligand binding domain, residues 307-554 (expressed and purified in-house) were used to measure compound binding. The assay principle is that ER alpha-LBD (GST) is added to a fluorescent ligand to form a receptor/fluorophore complex. A terbium-labelled anti-GST antibody (Product code PV3551) is used to indirectly label the receptor by binding to its GST tag, and competitive binding is detected by a test compound's ability to displace the fluorescent ligand, resulting in a loss of TR-FRET signal between the Tb-anti-GST antibody and the tracer. The assay was performed as follows with all reagent additions carried out using the Beckman Coulter BioRAPTR FRD microfluidic workstation: • 1. Acoustic dispense 120 nL of the test compound into a black low volume 384 well assay plates. • 2. Prepare 1×ER alpha-LBD/Tb-antiGST Ab in ES2 screening buffer and incubate for 15 minutes. • 3. Dispense 6 μL of the […] reagent into each well of the assay plate followed by 6 μL of Fluorophore reagent into each well of the assay plate • 4. Cover the assay plate to protect the reagents from light and evaporation, and incubate at room temperature for 4 hours. • 5. Excite at 337 nm and measure the fluorescent emission signal of each well at 490 nm and 520 nm using the BMG PheraSTAR.
Compounds were dosed directly from a compound source microplate containing serially diluted compound (4 wells containing 10 mM, […] and 10 nM final compound respectively) to an assay microplate using the Labcyte Echo 550. The Echo 550 is a liquid handler that uses acoustic technology to perform direct microplate-to-microplate transfers of DMSO compound solutions and the system can be programmed to transfer multiple small nL volumes of compound from the different source plate wells to give the desired serial dilution of compound in the assay which is then back-filled to normalise the DMSO concentration across the dilution range.
In total 120 nL of compound plus DMSO were added to each well and compounds were tested in a 12-point concentration response format over a final compound concentration range of 10, 2.917, 1.042, 0.2083, 0.1, 0.0292, 0.0104, 0.002083, 0.001, 0.0002917, 0.0001042, and 0.00001 μM respectively. TR-FRET dose response data obtained with each compound was exported into a suitable software package (such as Origin or Genedata) to perform curve fitting analysis. Competitive ER alpha binding was expressed as an IC50 value. This was determined by calculation of the concentration of compound that was required to give a 50% reduction in tracer compound binding to ER alpha-LBD.

[2] = target: T2, Estrogen Receptor (ERα) in MCF-7 human ductal carcinoma breast cell line (Homo sapiens, UniProt P03372); experiment: MCF-7 ER degradation assay (cell based immuno-fluorescence); conditions: MCF-7 cells, 18-22 hours incubation, 50% reduction of ERα expression; single experiment or average of two or more; read-out: MCF-7 ER degradation IC50
T2 construct: endogenous in cells; host or cells: MCF-7
T2 sequence (P03372 1-595): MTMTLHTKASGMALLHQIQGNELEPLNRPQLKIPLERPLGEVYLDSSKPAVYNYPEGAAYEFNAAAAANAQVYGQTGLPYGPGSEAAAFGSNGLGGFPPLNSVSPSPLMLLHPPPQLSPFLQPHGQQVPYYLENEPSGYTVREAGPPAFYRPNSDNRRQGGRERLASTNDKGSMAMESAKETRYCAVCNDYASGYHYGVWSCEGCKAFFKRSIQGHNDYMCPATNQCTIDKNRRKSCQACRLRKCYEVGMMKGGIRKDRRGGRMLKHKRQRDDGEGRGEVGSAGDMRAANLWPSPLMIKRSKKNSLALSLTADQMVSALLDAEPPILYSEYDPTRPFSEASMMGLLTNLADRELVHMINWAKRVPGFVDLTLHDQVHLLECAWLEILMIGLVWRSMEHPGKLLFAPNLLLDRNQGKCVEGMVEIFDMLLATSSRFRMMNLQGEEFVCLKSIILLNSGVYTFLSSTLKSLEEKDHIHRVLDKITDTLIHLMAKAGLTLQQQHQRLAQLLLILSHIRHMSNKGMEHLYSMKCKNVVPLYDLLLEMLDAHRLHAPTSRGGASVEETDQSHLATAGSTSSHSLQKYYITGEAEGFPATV
Method: MCF-7 ER Degradation Assay
The ability of compounds to down-regulate Estrogen Receptor (ER) numbers was assessed in a cell based immuno-fluorescence assay using the MCF-7 human ductal carcinoma breast cell line. MCF-7 cells were revived directly from a cryovial (approx 5×10^6 cells) in Assay Medium (phenol red free Dulbecco's Modified Eagle's medium (DMEM); Sigma D5921) containing 2 mM L-Glutamine and 5% (v/v) Charcoal/Dextran treated foetal calf serum. Cells were syringed once using a sterile 18 G×1.5 inch (1.2×40 mm) broad gauge needle and cell density was measured using a Coulter Counter (Beckman). Cells were further diluted in Assay Medium to a density of 3.75×10^4 cells per mL and 40 μL per well added to transparent bottomed, black, tissue culture-treated 384 well plates (Costar, No. 3712) using a Thermo Scientific Matrix WellMate or Thermo Multidrop. Following cell seeding, plates were incubated overnight at 37° C., 5% CO2 (Liconic carousel incubator). Test data was generated using the LabCyte Echo™ model 555 compound reformatter which is part of an automated workcell (Integrated Echo 2 workcell). Compound stock solutions (10 mM) of the test compounds were used to generate a 384 well compound dosing plate (Labcyte P-05525-CV1). 40 μL of each of the 10 mM compound stock solutions was dispensed into the first quadrant well and then 1:100 step-wise serial dilutions in DMSO were performed using a Hydra II (MATRIX UK) liquid handling unit to give 40 μL of diluted compound into quadrant wells 2 (0.1 mM), 3 (1 μM) and 4 (0.01 μM), respectively. 40 μL of DMSO added to wells in row P on the source plate allowed for DMSO normalisation across the dose range. To dose the control wells 40 μL of DMSO was added to row O1 and 40 μL of 100 μM fulvestrant in DMSO was added to row O3 on the compound source plate.
The Echo uses acoustic technology to perform direct microplate-to-microplate transfers of DMSO compound solutions to assay plates. The system can be programmed to transfer volumes as low as 2.5 nL in multiple increments between microplates and in so doing generates a serial dilution of compound in the assay plate which is then back-filled to normalise the DMSO concentration across the dilution range. Compounds were dispensed onto the cell plates with a compound source plate prepared as above producing a 12 point duplicate […] dose range with 3-fold dilutions and one final 10-fold dilution using the Integrated Echo 2 workcell. The maximum signal control wells were dosed with DMSO to give a final concentration of 0.3%, and the minimum signal control wells were dosed with fulvestrant to give a final concentration of 100 nM accordingly. Plates were further incubated for 18-22 hours at 37° C., 5% CO2 and then fixed by the addition of 20 μL of 11.1% (v/v) formaldehyde solution (in phosphate buffered saline (PBS)) giving a final formaldehyde concentration of 3.7% (v/v). Cells were fixed at room temperature for 20 mins before being washed two times with 250 μL PBS/Proclin (PBS with a Biocide preservative) using a BioTek platewasher, 40 μL of PBS/Proclin was then added to all wells and the plates stored at 4° C. The fixing method described above was carried out on the Integrated Echo 2 workcell. Immunostaining was performed using an automated AutoElisa workcell. The PBS/Proclin was aspirated from all wells and the cells permeabilised with 40 μL PBS containing 0.5% Tween™ 20 (v/v) for 1 hour at room temperature. The plates were washed three times in 250 μL of PBS/0.05% (v/v) Tween 20 with Proclin (PBST with a Biocide preservative) and then 20 μL of ERα (SP1) Rabbit monoclonal antibody (Thermofisher) 1:1000 in PBS/Tween™/3% (w/v) Bovine Serum Albumin was added. The plates were incubated overnight at 4° C. (Liconic carousel incubator) and then washed three times in 250 μL of PBS/0.05% (v/v) Tween™ 20 with Proclin (PBST). […]

| SMILES | IC50 [1] [nM] | DC50 [2] [nM] |
| --- | --- | --- |
| Cc1ncsc1-c1ccc(CNC(=O)[C@@H]2C[C@@H](O)CN2C(=O)[C@@H](NC(=O)COCCCCOCCOc2ccc([C@@H]3c4[nH]c5ccccc5c4C[C@@H](C)N3CC(F)F)nc2)C(C)(C)C)cc1 [Example 24, (2S,4R)-1-((S)-2-(2-(4-(2-((6-((1S,3R)-2-(2,2-Difluoroethyl)-3-methyl-2,3,4,9-tetrahydro-1H-pyrido[3,4-b]indol-1-yl)pyridin-3-yl)oxy)ethoxy)butoxy)acetamido)-3,3-dimethylbutanoyl)-4-hydroxy-N-(4-(4-methylthiazol-5-yl)benzyl)pyrrolidine-2-carboxamide] | 18 | 300 |
| Cc1ncsc1-c1ccc(CNC(=O)[C@@H]2C[C@@H](O)CN2C(=O)[C@@H](N(C)C(=O)COCCOCCOCCOc2cc(F)c([C@@H]3c4[nH]c5ccccc5c4C[C@@H](C)N3CC(C)(C)F)c(F)c2)C(C)(C)C)cc1 [Example 31, (2S,4R)-1-((S)-2-(tert-Butyl)-14-(3,5-difluoro-4-((1R,3R)-2-(2-fluoro-2-methylpropyl)-3-methyl-2,3,4,9-tetrahydro-1H-pyrido[3,4-b]indol-1-yl)phenoxy)-3-methyl-4-oxo-6,9,12-trioxa-3-azatetradecanoyl)-4-hydroxy-N-(4-(4-methylthiazol-5-yl)benzyl)pyrrolidine-2-carboxamide] | 0.6 | 0.3 |
| Cc1ncsc1-c1ccc(CNC(=O)[C@@H]2C[C@@H](O)CN2C(=O)[C@@H](NC(=O)COCCCOc2cc(F)c([C@@H]3c4[nH]c5ccccc5c4C[C@@H](C)N3CC(C)(C)F)c(F)c2)C(C)(C)C)cc1 [Example 41, (2S,4R)-1-((S)-2-(2-(3-(3,5-difluoro-4-((1R,3R)-2-(2-fluoro-2-methylpropyl)-3-methyl-2,3,4,9-tetrahydro-1H-pyrido[3,4-b]indol-1-yl)phenoxy)propoxy)acetamido)-3,3-dimethylbutanoyl)-4-hydroxy-N-(4-(4-methylthiazol-5-yl)benzyl)pyrrolidine-2-carboxamide] | 0.7 | 1.7 |
| Cc1ncsc1-c1ccc(CNC(=O)[C@@H]2C[C@@H](O)CN2C(=O)[C@@H](NC(=O)c2ccc(CCCCCOc3cc(F)c([C@@H]4c5[nH]c6ccccc6c5C[C@@H](C)N4CC(C)(C)F)c(F)c3)cc2)C(C)(C)C)cc1 [Example 27, (2S,4R)-1-((S)-2-(4-(5-(3,5-Difluoro-4-((1R,3R)-2-(2-fluoro-2-methylpropyl)-3-methyl-2,3,4,9-tetrahydro-1H-pyrido[3,4-b]indol-1-yl)phenoxy)pentyl)benzamido)-3,3-dimethylbutanoyl)-4-hydroxy-N-(4-(4-methylthiazol-5-yl)benzyl)pyrrolidine-2-carboxamide] | 1.1 | 22 |
| Cc1ncsc1-c1ccc(CNC(=O)[C@@H]2C[C@@H](O)CN2C(=O)[C@@H](NC(=O)COCc2cccnc2COc2cc(F)c([C@@H]3c4[nH]c5ccccc5c4C[C@@H](C)N3CC(C)(C)F)c(F)c2)C(C)(C)C)cc1 [Example 133, (2S,4R)-1-((S)-2-(2-((2-((3,5-Difluoro-4-((1R,3R)-2-(2-fluoro-2-methylpropyl)-3-methyl-2,3,4,9-tetrahydro-1H-pyrido[3,4-b]indol-1-yl)phenoxy)methyl)pyridin-3-yl)methoxy)acetamido)-3,3-dimethylbutanoyl)-4-hydroxy-N-(4-(4-methylthiazol-5-yl)benzyl)pyrrolidine-2-carboxamide] | 0.7 | 0.8 |
| Cc1ncsc1-c1ccc(CNC(=O)[C@@H]2C[C@@H](O)CN2C(=O)[C@@H](NC(=O)C(C)(C)OCCCCCCOc2cc(F)c([C@@H]3c4[nH]c5ccccc5c4C[C@@H](C)N3CC(C)(C)F)c(F)c2)C(C)(C)C)cc1 [Example 117, (2S,4R)-1-((S)-2-(2-((6-(3,5-Difluoro-4-((1R,3R)-2-(2-fluoro-2-methylpropyl)-3-methyl-2,3,4,9-tetrahydro-1H-pyrido[3,4-b]indol-1-yl)phenoxy)hexyl)oxy)-2-methylpropanamido)-3,3-dimethylbutanoyl)-4-hydroxy-N-(4-(4-methylthiazol-5-yl)benzyl)pyrrolidine-2-carboxamide] | 0.8 | 22 |
